According to US20200237871A1, “METHODS FOR MITIGATING LIVER INJURY AND PROMOTING LIVER HYPERTROPHY, REGENERATION AND CELL ENGRAFTMENT IN CONJUNCTION WITH RADIATION AND/OR RADIOMIMETIC TREATMENTS” (Janssen Pharmaceutica NV, priority 2019, published 2020):
“Also recorded” adds a separate entry of the source.

Tests used:
Format in all cases: in vivo, mouse
[1] = tested on: DPPIV−/− knockout mice; experiment: Relative change of dissected liver lobe size after hepatic irradiation (Example 2)
Protocol: (§1) 8-12-week-old male and female Di-peptyl peptidase IV (DPPIV) −/− knockout mice and 8-12-week-old male and female C57Bl6 mice were used in this study. Animals were weighed in the beginning of the experiment and before tissue collection. All animals were housed in the Institute for Animal Studies at Albert Einstein College of medicine and fed regular rodent chow. All experiments were performed to according to protocols approved by Institutional Animal Care and Use Committee at Albert Einstein College of Medicine. Animals were made cirrhotic using CCl4 administration (intraperitoneal [IP] injections twice a week for at least 11 weeks).
Image-guided external beam irradiation was performed using a small animal radiation research platform (SARRP, Xstrahl Inc., Suwanee, Ga.). Mice were given gastrografin contrast through gavage to improve visualization of the gastrointestinal (GI) tract. After approximately 2 minutes, mice were positioned on a tubular couch and anesthetized with ˜2% Isofluorane (Isothesia, USP) in 2 L/min pure oxygen. A cone-beam computed tomography (CBCT) scan was acquired and a treatment plan irradiating the median lobe and right lobe was generated using the MuriPlan software. […]

[2] = tested on: factor VIII (FVIII); experiment: Factor VIII production in plasma and liver of Hemophilia A mice (ELISA, Western blot, mRNA) (Example 6)
Source text: 8-16-week-old male C57/BL6 mice, 8-16-week-old female and male B6129SF2/J mice (donor for isolating LSECs) and 8-16-week-old female and male Hemophilia mice (F^8tm1Kaz) mice were used in this study. Mice were housed in groups of up to 5 in micro-isolator cages on stainless steel racks (Allentown, Inc., Allentown, N.J.) with a total floor space of 500 cm^2. The cages utilized an external water bottle and a dual feeder rack (Fisher Scientific, Hampton, N.H.). These cages were stored in the storage rack which provided temperature, humidity, and ventilation control to each individual cage (Allentown, Inc.). Bed-o'Cobs ⅛″ (Fisher Scientific) were used as bedding material in each cage.
The methods were identical to Experiment 5 as described above; including the preparation of test articles (solutions of RWJ-800088 and AdHGF), isolation and transplant of LSECs, and Hepatic irradiation.
The livers of mice were irradiated at 50 Gy by using an X-ray irradiator (SARRP). At 24 hours post-irradiation, the LSECs (1×10^6 cells/mouse) were injected to the mouse through tail vein. […]
A tail bleeding test was performed in which the extent of bleeding and time to clotting over the course of 30 minutes was evaluated. FVIII protein levels were evaluated by Western blot and mRNA profiling in the blood and liver to evaluate the extent to which there was engraftment of functioning LSECs that produce FVIII. […]

[3] = tested on: mice with normal or cirrhotic (CCl4) livers; experiment: SPECT-CT residual perfusion defect volume after hepatic irradiation (Example 2)
Protocol: as §1
Image-guided external beam irradiation was performed using a small animal radiation research platform (SARRP, Xstrahl Inc., Suwanee, Ga.). Mice were given gastrografin contrast through gavage to improve visualization of the gastrointestinal (GI) tract. After approximately 2 minutes, mice were positioned on a tubular couch and anesthetized with ˜2% Isofluorane (Isothesia, USP) in 2 L/min pure oxygen. A cone-beam computed tomography (CBCT) scan was acquired and a treatment plan irradiating the median lobe and right lobe was generated using the MuriPlan software. To minimize toxicity, in contrast to Example 1 where two parallel opposed fields were used, irradiation was performed using 2 arcs per liver target with equal dosing weights (likely resulting in more collateral lower dose radiation exposure compared to Example 1). Within the targeted lobes, the position of the isocenter was chosen to minimize irradiation of the GI tract, spine, and heart (the maximum dose to these organs was kept below 10 Gy). Targets were irradiated with 50 Gy X-rays at 220 kVp energy and 13 mA tube current (dose rate of 2.4-2.5 Gy/min) using a 1 mm copper filter for beam hardening. (Brodin et al., The Radiation Safety Journal, 2015, 109 Supp 3, S190).
TPOm was diluted in sterile PBS to a 10 mg/ml stock. The stock was stored at −20° C. and allowed to come to room temperature prior to administration. TPOm was administered as a single dose (300 μg/kg) via subcutaneous injection 10 minutes after the transplant procedure.
LSEC transplantation is a novel technique that requires a strong growth stimulus for effective liver repopulation (Guha et al., Hepatology, 2002, 36:354-62; Laconi et al., Am. J. Pathol., 1998, 153:319-29). Following isolation of LSECs, 500×10^5 LSECs are transplanted via intrasplenic injection into healthy adult mice anesthetized with Isoflurane (Isothesia, USP) 24 hrs post HIR. […]
SPECT with a radiotracer to assess the progression of RILD in-vivo has been developed and utilized in this work. […] The CT was set on medium resolution and was measured by a dosimeter and read by a third-party company, at an exposure of 5 mRem/hr for each CT scan/animal. […]

Substance: methoxypolyethyleneglycol20000-propionyl-L-Isoleucyl-L-Glutamyl-Glycyl-L-Prolyl-L-Threonyl-L-Leucyl-L-Arginyl-L-Glutaminyl-L-2-Naphthylalanyl-L-Leucyl-L-Alanyl-L-Alanyl-L-Arginyl-Sarcosyl-Ne-(methoxypolyethyleneglycol20000-propionyl-L-Isoleucyl-L-Glutamyl-Glycyl-L-Prolyl-L-Threonyl-L-Leucyl-L-Arginyl-L-Glutaminyl-L-2-Naphthyl alanyl-L-Leucyl-L-Alanyl-L-Alanyl-L-Arginyl-Sarcosyl-)-Lysinamide [RWJ-800088]
- volume of the non-irradiated left lobe ([1]; 2-months post-HIR, HIR then LSECs+/−RWJ-800088 at 24-hours post-HIR): trend for an increase
- size of the irradiated lobes (median and right) ([1]; RWJ-800088 and HIR only): trend for a reduction
- levels of Factor VIII mRNA and activated protein in plasma and liver ([2]; HIR+LSECs+RWJ-800088 treated hemophilia mice): increased levels
- expression of factor VIII (FVIII) by ELISA in plasma and liver compared to non-treated Haemophilia A mice ([2]; HIR+LSECs+drug): prolonged expression
- perfusion defect of irradiated liver tissue (SPECT-CT), in words ([3]; LSEC transplant followed by TPOm injection post irradiation): perfusion recovery; also recorded: significant mitigation of defect formation
- residual defect 2 months post radiation, cirrhotic liver ([3]; cirrhotic livers, RWJ-800088 and LSEC transplantation 24-hours post irradiation, listed as TPOm): significantly reduced
- mean residual defect volume in the irradiated region ([3]; normal livers, RWJ-800088 2 or 24 hours prior to irradiation, without LSEC transplant, 2 months post HIR, listed as TPOm): significant reduction in defect volume
- residual defect volume in the irradiated area ([3]; normal livers, RWJ-800088 and LSEC transplantation 24 hours after irradiation, 2 months post HIR, p=0.03, HIR only 71.4%): 18.2%
